# Source: patent US20180117148A1, “COMPOUNDS, PHARMACEUTICAL COMPOSITIONS AND METHODS OF TREATMENTS OF IMMUNE RELATED DISEASES AND DISORDERS” (priority 2016, published 2018)
# “And” between values parts separate entries of the source, which are not always exact repeats. Identical values can stand only once.
# Columns and labels:
# [1] = tested on: patients with either rheumatoid or psoriatic arthritis; assay: Retrospective community-based study of etanercept with adjunctive neuroregulatory medications, 28-joint count (swollen and tender); type: in vivo, human
# Method: A retrospective, community-based study assessed consecutive patients initiating biologic treatment of inflammatory arthritis. Improved outcomes were measured by a 28-joint count (swollen and tender). […] Consecutive patients with either rheumatoid or psoriatic arthritis initiated etanercept (25 mg/BIW). For partial response, neuroregulatory medications were added. Neuroregulatory medication options included bedtime dosing of either lorazepam or clonazepam, pramipexole, trazodone, other antidepressants and anticonvulsants.
# Primary outcome: “≥70% reduction in 28-joint count (tender and swollen). Statistical analysis: LOCF and logistic regression (see data in FIGS. 1 and 2).
# [2] = tested on: inflammatory joint diseases like rheumatoid arthritis (RA) and psoriatic arthritis; details: etanercept in inflammatory joint diseases (RA, psoriatic arthritis); background figure; cited from earlier work
substance,measurement,setting,value
etanercept,patients in whom NSAIDs were discontinued,[1]; 14 of 29 on NSAIDs at baseline,48%
same,patients in whom other DMARDs were discontinued,[1]; 22 of 28 on other DMARDs at baseline,79%
same,patients in whom methotrexate was discontinued,[1]; 24 of 32 on methotrexate at baseline (19.14 mg/wk),75%
same,patients in whom prednisone was discontinued,[1]; 26 of 42 on prednisone at baseline (6.7 mg/d),62%
same,patients achieving ≥70% reduction in joint count,"[1]; by BOCF, 66 patients, etanercept 25 mg BIW, neuroregulatory medications added for partial response",74%
same,"patients achieving ≥70% reduction in 28-joint count (tender and swollen), primary outcome","[1]; by LOCF, 52/66 patients, etanercept 25 mg BIW, neuroregulatory medications added for partial response (36/66), p<0.001",79%
same,mean 28-joint count after addition of etanercept,"[1]; decreased from baseline 11.6±9.0, 66 patients, etanercept 25 mg BIW, neuroregulatory medications added for partial response",1.3 and 1.3±4.3
same,patients achieving American College of Rheumatology 70% improvement (ACR70) response,[2],About 27%
same,patients receiving disease activity score (DAS) remission response,[2],20.5%
